# Source: patent US9309242B2, “Substituted pyrido[2,3-b]pyrazines as FGFR kinase inhibitors” (priority 2011, dated 2016)
# Where two headings read alike, the source gives them in different places.
# Columns and labels:
# [1] = system: Ba/F3-FGFR3-transfected cells; assay: Ba/F3-FGFR3 (plus IL3) cellular proliferation assay, counterscreen with 10 ng/ml murine IL3; type: cell-based; details: read-out: BAF3-FGFR3 (PLUS IL3) pIC50 (converted)
# In short: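 Viability readout was resazurin reduction (ex 540/em 590 nm) after 4 h, following 24 h compound treatment at 37 °C of FGFR3-transfected Ba/F3 cells (20000/well, RPMI-1640/10% FBS). IL3-dependent counterscreen used identical conditions plus 10 ng/ml murine IL3.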
# [2] = molecular target: T1, Ba/F3-KDR-transfected cells (Homo sapiens, UniProt P35968); assay: Ba/F3-KDR (minus IL3) cellular proliferation assay, Alamar Blue; type: cell-based
# T1 construct: BAF3-KDR (MIN IL3) pIC50; other: minus IL3
# In short: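 Compound in DMSO was dispensed first, then transfected cells in serum-containing RPMI-1640 were added. After a 24 h incubation, viability was gauged by resazurin reduction over 4 h, measured as fluorescence.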
# FGFR1 (h) = FGFR1 (h) (Homo sapiens, UniProt P11362); assay: FGFR1 (enzymatic assay), TR-FRET; type: biochemical; details: read-out: FGFR 1 pIC50 (converted)
# [3] = system: Ba/F3-Flt3-transfected cells; assay: Ba/F3-Flt3 (plus IL3) cellular proliferation assay, counterscreen with 10 ng/ml murine IL3; type: cell-based; details: plus IL3 (10 ng/ml murine IL3, counterscreen); read-out: BAF3_FLT3 (PLUS IL3) pIC50 (converted)
# Experimental: Ba/F3-Flt3 (Minus IL3 or Plus IL3) (Cellular Proliferation Assay)
# In a 384 well plate, 100 nl of compound dilution in DMSO was sprayed before adding 50 μl cell culture medium (phenol red free RPMI-1640, 10% FBS, 2 mM L-Glutamine and 50 μg/ml Gentamycin) containing 20000 cells per well of Ba/F3-Flt3-transfected cells. Cells were put in an incubator at 37° C. and 5% CO2. After 24 hours, 10 μl of Alamar Blue solution (0.5 mM K3Fe(CN)6, 0.5 mM K4Fe(CN)6, 0.15 mM Resazurin and 100 mM Phosphate Buffer) was added to the wells, incubated for 4 hours at 37° C. and 5% CO2 before RFU's (Relative Fluorescence Units) (ex. 540 nm., em. 590 nm.) were measured in a fluororescence plate reader.
# As a counterscreen the same experiment was performed in the presence of 10 ng/ml murine IL3.
# [4] = plus IL3 (10 ng/ml murine IL3, counterscreen)
# [5] = average values if tested multiple times
# Sequence of FGFR1 (h) (P11362 22-822): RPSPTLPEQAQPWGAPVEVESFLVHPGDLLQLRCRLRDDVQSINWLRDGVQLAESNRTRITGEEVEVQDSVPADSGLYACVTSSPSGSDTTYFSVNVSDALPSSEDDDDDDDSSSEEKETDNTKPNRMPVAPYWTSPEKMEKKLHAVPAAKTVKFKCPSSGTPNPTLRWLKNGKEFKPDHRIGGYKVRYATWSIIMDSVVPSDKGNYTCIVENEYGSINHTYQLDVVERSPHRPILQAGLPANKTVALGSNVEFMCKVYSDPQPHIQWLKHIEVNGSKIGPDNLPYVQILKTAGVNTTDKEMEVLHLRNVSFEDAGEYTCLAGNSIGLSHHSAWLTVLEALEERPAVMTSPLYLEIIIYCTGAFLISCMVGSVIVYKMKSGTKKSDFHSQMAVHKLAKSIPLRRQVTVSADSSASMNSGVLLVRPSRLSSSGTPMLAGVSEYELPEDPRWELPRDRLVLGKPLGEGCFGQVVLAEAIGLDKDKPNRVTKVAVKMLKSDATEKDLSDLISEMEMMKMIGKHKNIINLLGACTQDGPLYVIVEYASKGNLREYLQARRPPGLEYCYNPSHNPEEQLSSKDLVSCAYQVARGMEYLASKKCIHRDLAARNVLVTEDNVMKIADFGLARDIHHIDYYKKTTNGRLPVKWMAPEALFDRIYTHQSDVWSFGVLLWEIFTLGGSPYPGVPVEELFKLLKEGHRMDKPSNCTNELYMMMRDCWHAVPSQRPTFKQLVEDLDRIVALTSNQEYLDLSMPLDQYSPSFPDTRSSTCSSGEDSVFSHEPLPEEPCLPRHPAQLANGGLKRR
# T1 sequence (P35968 whole entry, change not shown): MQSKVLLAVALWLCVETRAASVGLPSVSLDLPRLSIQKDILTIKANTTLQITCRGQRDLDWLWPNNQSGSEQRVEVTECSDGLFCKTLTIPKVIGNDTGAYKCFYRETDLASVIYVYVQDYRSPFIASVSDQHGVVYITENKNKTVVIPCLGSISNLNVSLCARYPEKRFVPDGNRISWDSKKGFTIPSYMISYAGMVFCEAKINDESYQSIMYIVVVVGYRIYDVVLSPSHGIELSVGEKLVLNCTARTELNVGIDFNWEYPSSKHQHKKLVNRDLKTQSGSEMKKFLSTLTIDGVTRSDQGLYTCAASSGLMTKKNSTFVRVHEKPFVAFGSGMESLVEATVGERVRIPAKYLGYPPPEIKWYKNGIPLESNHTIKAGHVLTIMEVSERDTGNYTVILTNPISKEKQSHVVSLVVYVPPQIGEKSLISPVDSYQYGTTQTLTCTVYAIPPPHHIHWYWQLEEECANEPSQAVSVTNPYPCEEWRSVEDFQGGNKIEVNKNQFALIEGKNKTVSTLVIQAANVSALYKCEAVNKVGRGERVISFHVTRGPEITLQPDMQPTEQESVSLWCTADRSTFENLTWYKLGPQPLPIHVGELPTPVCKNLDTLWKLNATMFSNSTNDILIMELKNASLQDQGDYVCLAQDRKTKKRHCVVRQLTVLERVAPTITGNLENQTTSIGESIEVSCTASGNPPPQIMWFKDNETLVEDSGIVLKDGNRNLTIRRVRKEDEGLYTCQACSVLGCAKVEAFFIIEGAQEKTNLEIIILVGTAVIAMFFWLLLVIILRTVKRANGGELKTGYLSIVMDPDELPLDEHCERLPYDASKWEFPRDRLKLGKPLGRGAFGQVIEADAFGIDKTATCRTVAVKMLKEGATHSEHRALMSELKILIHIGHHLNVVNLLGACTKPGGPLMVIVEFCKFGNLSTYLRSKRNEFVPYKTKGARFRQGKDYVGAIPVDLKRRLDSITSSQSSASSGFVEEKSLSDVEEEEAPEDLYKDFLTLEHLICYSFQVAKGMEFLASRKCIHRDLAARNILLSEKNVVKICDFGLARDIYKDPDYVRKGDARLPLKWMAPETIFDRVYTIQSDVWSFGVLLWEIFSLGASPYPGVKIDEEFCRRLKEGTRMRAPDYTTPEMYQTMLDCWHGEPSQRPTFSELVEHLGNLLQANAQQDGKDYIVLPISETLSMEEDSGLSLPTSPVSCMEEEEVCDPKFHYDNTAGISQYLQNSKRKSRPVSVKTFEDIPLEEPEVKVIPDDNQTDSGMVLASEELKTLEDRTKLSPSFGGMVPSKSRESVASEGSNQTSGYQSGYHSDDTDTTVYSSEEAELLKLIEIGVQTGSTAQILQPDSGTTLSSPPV
SMILES,melting point,"IC50 [1, 4]",BAF3-KDR (MIN IL3) pIC50 [2],IC50 (FGFR1 (h)),IC50 [1],IC50 (FGFR1 (h); [5]),IC50 [3]
COc1cc(OC)cc(N(CC2CCCCO2)c2ccc3ncc(-c4cnn(C)c4)nc3n2)c1 (centres unmarked) [Compound 129],137 °C,> 10000 nM,5.33,3.47 nM,–,–,–
COc1cc(OC)cc(N(Cc2nc[nH]n2)c2ccc3ncc(-c4cnn(C)c4)nc3n2)c1 [Compound 71],238 °C,–,6.03,–,> 10000 nM,1.07 nM,–
COc1cc(OC)cc(N(CC2CCC(=O)N2)c2ccc3ncc(-c4cnn(C)c4)nc3n2)c1 (centres unmarked) [Compound 49],182 °C,> 10000 nM,5.16,–,–,3.24 nM,–
COCC(O)Cn1c(=Nc2c(F)c(OC)cc(OC)c2F)ccc2ncc(-c3cnn(C)c3)nc21 (centres unmarked) [Compound 51],180 °C,> 10000 nM,5.93,–,–,0.589 nM,–
COc1cc(O)cc(N(Cc2ncc[nH]2)c2ccc3ncc(-c4cnn(C)c4)nc3n2)c1 [Compound 103],172 °C,> 10000 nM,6.40,–,–,0.339 nM,–
COc1cc(/N=c2\ccc3ncc(-c4cnn(C)c4)nc3n2CC2CCC(=O)N2)c(F)c(OC)c1 (centres unmarked) [Compound 45],127 °C,> 10000 nM,~5.96,–,–,1.48 nM,–
"COc1cc(/N=c2\ccc3ncc(-c4cnn(C)c4)nc3n2CC(O)COC(C)C)c(F)c(OC)c1 (single isomer, unassigned) [Compound 77]",96 to 97 °C,> 10000 nM,5.33,–,–,2.69 nM,–
"COc1ccc(Cl)c(/N=c2\ccc3ncc(-c4cnn(C)c4)nc3n2CC2CCC(=O)N2)c1Cl (single isomer, unassigned) [Compound 89]",183 °C,> 10000 nM,<5,–,–,93.3 nM,–
COc1cc(OC)c(F)c(N(CCNC(C)C)c2ccc3ncc(-c4cnn(C)c4)nc3n2)c1F [Compound 5],183 °C,> 10000 nM,6.35,–,–,1.58 nM,> 10000 nM
CNCCn1/c(=N/c2c(F)cccc2F)ccc2ncc(-c3cnn(C)c3)nc21 [Compound 44],80 °C,> 10000 nM,<5,–,–,490 nM,–
COc1cc(O)cc(N(Cc2ncc[nH]2)c2ccc3ncc(-c4cnn(C)c4)nc3n2)c1F [Compound 95],218 °C,> 9330 nM,6.85,–,–,0.417 nM,–
"COCC(O)CN(c1ccc2ncc(-c3cnn(C)c3)nc2n1)c1cc(OC)cc(OC)c1F (single isomer, unassigned) [Compound 58]",94 to 95 °C,> 10000 nM,5.97,–,–,1.35 nM,–
CNCCN(c1ccc2ncc(-c3cnn(C)c3)nc2n1)c1c(F)c(OC)cc(OC)c1F [Compound 3],159 °C,> 10000 nM,6.48,–,–,1.35 nM,–
